Assay results: ChEMBL document CHEMBL4828722, “The synthesis and bioactivity of pyrrolo[2,3-d]pyrimidine derivatives as tyrosine kinase inhibitors for NSCLC cells with EGFR mutations” (Eur J Med Chem, 2021)

How the values were obtained:
[1] = Cytotoxicity against human HBE cells assessed as reduction in cell viability measured after 48 hrs by CCK8 assay; type: cell-based
BEAS-2B = test: Cytotoxicity against human BEAS-2B cells assessed as reduction in cell viability measured after 48 hrs by CCK8 assay; type: cell-based
NCI-H460 = test: Cytotoxicity against human NCI-H460 cells harboring wild type EGFR assessed as reduction in cell viability measured after 48 hrs by CCK8 assay; type: functional, cell-based; details: NCI-H460, 48 h
A549 = test: Cytotoxicity against human A549 cells harboring wild type EGFR assessed as reduction in cell viability measured after 48 hrs by CCK8 assay; type: functional, cell-based; details: A549, 48 h
NCI-H1975 = test: Cytotoxicity against human NCI-H1975 cells harboring EGFR L858R/T790M mutant assessed as reduction in cell viability measured after 48 hrs by CCK8 assay; type: functional, cell-based; details: NCI-H1975, 48 h
HCC827 = test: Cytotoxicity against human HCC827 cells harboring EGFR del E746-A750 mutant assessed as reduction in cell viability measured after 48 hrs by CCK8 assay; type: functional, cell-based; details: HCC827, 48 h
[2] = biological target: Epidermal growth factor receptor (Homo sapiens, UniProt P00533); test: Inhibition of wild type EGFR (unknown origin) at 80 nM pretreated with substrate for 10 mins followed by ATP addition measured after 60 mins by mobility shift assay relative to control
[3] = test system: Epidermal growth factor receptor (Homo sapiens), P00533 [L858R,T790M]; test: Inhibition of […] EGFR L858R/T790M mutant (unknown origin) at 2 nM pretreated with substrate for 10 mins followed by ATP addition measured after 60 mins by mobility shift assay relative to control
[4] = test system: Epidermal growth factor receptor (Homo sapiens), P00533 [UNDEFINED MUTATION]; test: Inhibition of […] EGFR Del E746/A750 mutant (unknown origin) at 2 nM pretreated with substrate for 10 mins followed by ATP addition measured after 60 mins by mobility shift assay relative to control
[5] = test system: Epidermal growth factor receptor (Homo sapiens), P00533 [L858R]; test: Inhibition of […] EGFR L858R mutant (unknown origin) at 2 nM pretreated with substrate for 10 mins followed by ATP addition measured after 60 mins by mobility shift assay relative to control
[6] = test system: Epidermal growth factor receptor (Homo sapiens), P00533 [T790M]; test: Inhibition of […] EGFR T790M mutant (unknown origin) at 2 nM pretreated with substrate for 10 mins followed by ATP addition measured after 60 mins by mobility shift assay relative to control
[7] = test system: Epidermal growth factor receptor (Homo sapiens), P00533 [C797S]; test: Inhibition of […] EGFR C797S mutant (unknown origin) at 2 nM pretreated with substrate for 10 mins followed by ATP addition measured after 60 mins by mobility shift assay relative to control
[8] = test system: Epidermal growth factor receptor (Homo sapiens), P00533 [L858R,T790M,C797S]; test: Inhibition of […] EGFR L858R/T790M/C797S mutant (unknown origin) at 2 nM pretreated with substrate for 10 mins followed by ATP addition measured after 60 mins by mobility shift assay relative to control

Sequence of Epidermal growth factor receptor (Homo sapiens), P00533 [T790M] (P00533 whole entry T790M): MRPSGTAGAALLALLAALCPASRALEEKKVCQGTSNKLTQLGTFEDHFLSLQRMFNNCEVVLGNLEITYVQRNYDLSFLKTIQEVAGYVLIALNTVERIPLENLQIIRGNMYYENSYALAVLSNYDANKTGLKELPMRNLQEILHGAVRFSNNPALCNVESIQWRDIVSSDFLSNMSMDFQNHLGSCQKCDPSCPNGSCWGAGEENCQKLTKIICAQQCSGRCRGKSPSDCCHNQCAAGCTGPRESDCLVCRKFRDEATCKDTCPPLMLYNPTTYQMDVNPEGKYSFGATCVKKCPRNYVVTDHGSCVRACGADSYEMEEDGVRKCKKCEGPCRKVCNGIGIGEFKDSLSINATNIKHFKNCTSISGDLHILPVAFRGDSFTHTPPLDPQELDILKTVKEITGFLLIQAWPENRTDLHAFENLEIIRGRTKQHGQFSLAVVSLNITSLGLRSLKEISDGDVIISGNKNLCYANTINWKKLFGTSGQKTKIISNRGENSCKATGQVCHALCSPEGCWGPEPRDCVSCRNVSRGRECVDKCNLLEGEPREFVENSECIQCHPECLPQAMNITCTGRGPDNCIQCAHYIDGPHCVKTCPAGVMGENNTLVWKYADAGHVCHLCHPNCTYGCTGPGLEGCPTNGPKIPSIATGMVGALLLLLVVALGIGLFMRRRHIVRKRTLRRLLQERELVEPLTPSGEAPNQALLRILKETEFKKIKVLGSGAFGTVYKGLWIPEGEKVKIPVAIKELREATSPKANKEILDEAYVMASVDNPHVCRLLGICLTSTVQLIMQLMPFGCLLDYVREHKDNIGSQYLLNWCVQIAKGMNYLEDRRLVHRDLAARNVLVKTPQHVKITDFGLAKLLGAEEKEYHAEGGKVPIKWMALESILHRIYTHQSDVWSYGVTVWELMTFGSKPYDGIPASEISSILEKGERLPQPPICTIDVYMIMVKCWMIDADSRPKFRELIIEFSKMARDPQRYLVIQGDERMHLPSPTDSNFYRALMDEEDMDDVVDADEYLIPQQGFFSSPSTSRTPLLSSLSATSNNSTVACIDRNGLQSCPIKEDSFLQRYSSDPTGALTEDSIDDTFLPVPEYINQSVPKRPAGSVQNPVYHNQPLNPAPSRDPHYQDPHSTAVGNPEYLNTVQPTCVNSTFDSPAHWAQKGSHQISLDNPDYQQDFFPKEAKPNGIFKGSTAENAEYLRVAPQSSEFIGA
Sequence of Epidermal growth factor receptor (Homo sapiens), P00533 [L858R,T790M] (P00533 whole entry T790M/L858R, looked up): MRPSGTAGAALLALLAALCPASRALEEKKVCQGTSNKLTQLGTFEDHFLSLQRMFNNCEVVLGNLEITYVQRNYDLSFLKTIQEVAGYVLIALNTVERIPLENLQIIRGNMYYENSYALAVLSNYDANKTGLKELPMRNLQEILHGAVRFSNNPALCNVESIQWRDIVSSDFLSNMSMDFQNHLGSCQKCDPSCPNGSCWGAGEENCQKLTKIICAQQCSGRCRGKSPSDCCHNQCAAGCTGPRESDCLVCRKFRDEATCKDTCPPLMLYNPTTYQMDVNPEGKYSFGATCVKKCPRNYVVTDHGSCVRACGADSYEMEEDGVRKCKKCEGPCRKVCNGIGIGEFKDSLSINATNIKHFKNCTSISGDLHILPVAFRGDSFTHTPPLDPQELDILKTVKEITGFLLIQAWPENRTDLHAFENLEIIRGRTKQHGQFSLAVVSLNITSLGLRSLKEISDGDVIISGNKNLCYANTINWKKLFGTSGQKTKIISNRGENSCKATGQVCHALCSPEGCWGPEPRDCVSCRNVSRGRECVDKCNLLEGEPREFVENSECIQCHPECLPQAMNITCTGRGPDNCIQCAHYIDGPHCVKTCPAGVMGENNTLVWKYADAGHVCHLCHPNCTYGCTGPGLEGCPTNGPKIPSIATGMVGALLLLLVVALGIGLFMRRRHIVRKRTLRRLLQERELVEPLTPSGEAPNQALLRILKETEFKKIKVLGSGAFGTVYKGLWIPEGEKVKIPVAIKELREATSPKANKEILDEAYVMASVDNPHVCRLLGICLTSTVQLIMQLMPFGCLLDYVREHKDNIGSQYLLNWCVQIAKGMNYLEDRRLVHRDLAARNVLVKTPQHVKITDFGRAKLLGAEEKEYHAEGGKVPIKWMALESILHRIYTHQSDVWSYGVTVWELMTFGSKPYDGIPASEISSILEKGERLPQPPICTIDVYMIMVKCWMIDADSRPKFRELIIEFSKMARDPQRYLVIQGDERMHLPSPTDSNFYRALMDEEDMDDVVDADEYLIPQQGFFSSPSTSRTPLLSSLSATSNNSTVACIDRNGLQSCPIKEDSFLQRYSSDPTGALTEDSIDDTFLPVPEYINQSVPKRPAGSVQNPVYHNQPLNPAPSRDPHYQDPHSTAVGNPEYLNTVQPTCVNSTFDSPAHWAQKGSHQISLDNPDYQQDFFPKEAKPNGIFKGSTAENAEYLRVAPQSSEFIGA
Sequence of Epidermal growth factor receptor (Homo sapiens), P00533 [L858R] (P00533 whole entry L858R): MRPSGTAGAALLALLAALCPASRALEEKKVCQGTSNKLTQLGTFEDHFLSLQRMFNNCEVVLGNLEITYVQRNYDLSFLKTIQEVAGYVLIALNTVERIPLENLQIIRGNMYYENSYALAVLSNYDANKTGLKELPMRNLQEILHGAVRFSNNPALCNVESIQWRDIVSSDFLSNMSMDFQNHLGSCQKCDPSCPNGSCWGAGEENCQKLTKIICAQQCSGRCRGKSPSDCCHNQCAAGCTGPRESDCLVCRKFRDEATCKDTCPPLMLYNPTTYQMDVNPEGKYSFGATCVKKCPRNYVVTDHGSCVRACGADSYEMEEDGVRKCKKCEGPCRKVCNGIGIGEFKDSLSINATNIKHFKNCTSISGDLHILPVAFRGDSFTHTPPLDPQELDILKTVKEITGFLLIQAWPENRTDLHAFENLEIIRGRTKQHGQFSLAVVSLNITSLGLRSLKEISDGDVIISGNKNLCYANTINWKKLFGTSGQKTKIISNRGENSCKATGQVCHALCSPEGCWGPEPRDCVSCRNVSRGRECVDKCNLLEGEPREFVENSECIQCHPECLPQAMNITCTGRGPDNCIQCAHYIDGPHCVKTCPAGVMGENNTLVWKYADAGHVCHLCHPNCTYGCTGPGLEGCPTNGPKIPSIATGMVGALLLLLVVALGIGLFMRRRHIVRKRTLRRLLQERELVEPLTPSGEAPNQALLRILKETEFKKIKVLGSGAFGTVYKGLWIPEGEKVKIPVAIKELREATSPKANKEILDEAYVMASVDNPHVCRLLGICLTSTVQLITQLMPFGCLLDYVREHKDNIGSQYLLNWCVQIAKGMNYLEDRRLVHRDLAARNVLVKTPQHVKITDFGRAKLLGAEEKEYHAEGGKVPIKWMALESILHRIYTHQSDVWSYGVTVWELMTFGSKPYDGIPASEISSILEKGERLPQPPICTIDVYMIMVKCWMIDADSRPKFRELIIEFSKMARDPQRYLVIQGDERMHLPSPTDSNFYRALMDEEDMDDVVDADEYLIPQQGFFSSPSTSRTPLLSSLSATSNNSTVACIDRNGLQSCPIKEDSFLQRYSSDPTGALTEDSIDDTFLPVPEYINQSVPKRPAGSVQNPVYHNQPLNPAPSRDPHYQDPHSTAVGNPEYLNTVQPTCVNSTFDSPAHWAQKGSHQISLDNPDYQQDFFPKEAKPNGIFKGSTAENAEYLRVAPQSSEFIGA
Sequence of Epidermal growth factor receptor (Homo sapiens), P00533 [C797S] (P00533 whole entry C797S): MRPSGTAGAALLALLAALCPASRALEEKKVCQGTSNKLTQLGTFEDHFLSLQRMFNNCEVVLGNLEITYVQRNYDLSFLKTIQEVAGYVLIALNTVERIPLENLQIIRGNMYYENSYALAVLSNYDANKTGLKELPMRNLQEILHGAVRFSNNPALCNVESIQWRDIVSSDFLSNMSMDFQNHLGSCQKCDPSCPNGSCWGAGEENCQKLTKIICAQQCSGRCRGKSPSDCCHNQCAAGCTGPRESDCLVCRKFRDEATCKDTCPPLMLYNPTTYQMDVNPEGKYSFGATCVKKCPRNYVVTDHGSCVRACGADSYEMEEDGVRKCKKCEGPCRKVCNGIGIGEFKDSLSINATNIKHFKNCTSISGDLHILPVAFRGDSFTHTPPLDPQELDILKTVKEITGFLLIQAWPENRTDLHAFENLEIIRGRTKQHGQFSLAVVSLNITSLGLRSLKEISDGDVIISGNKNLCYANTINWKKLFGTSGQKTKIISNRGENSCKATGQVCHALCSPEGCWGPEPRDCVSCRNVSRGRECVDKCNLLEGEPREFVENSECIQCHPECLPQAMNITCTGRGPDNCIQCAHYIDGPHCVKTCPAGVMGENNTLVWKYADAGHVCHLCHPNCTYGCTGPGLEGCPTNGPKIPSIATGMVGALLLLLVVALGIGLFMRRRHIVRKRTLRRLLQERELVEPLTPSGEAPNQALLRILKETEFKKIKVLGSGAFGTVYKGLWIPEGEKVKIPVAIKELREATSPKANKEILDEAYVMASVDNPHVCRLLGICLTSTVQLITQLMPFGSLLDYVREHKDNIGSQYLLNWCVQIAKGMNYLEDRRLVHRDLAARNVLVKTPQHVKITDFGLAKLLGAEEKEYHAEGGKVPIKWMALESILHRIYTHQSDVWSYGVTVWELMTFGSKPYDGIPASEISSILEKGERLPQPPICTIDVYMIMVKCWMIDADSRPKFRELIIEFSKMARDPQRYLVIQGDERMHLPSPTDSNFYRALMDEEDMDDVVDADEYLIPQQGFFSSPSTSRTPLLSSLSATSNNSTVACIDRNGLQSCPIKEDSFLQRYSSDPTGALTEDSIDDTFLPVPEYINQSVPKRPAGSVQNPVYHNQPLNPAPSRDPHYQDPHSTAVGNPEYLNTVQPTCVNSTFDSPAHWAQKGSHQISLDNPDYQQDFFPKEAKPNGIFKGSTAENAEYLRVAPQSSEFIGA

Row | SMILES | IC50 [1] [µM] | IC50 (BEAS-2B) [µM] | IC50 (NCI-H460) [µM] | IC50 (A549) [µM] | IC50 (NCI-H1975) [µM] | IC50 (HCC827) [µM] | inhibition [2] [%] | inhibition [3] [%] | inhibition [4] [%] | inhibition [5] [%] | inhibition [6] [%] | inhibition [7] [%] | inhibition [8] [%]
1 | C=CC(=O)Nc1cccc(Oc2nc(Nc3ccc(N4CCN(C)CC4)c([N+](=O)[O-])c3)nc3c2ccn3COC(=O)C(C)(C)C)c1 | 3.61 | 5.73 | 4.68 | 3.1 | 4.12 | 0.44 | 4.7 | 3.5 | 0.41 | 13 | 7.9 | 6.3 | 8.4
2 | C=CC(=O)Nc1cccc(Oc2nc(Nc3ccc(N4CCN(C)CC4)c(Cl)c3)nc3[nH]ccc23)c1 | 8.73 | 3.8 | 4.86 | 1.68 | 1.67 | 0.12 | 86 | 92 | 44 | 41 | 98 | 4.8 | 9.2
3 | C=CC(=O)Nc1cccc(Oc2nc(Nc3ccc(N4CCN(C)CC4)c(N)c3)nc3c2ccn3COC(=O)C(C)(C)C)c1 | 9.58 | 9.54 | 7.65 | 10.8 | 42 | 0.33 | 4.5 | 2.4 | 11 | 9.7 | 7.3 | 2.2 | 3.6
4 | C=CC(=O)Nc1cccc(Oc2nc(Nc3ccc(N4CCN(C)CC4)cc3)nc3[nH]ccc23)c1 | 28.1 | 23.8 | 36 | 9.92 | 22 | 0.24 | – | – | – | – | – | – | –
5 | C=CC(=O)Nc1cccc(Oc2nc(Nc3ccc(N4CCN(C)CC4)c(OC)c3)nc3[nH]ccc23)c1 | 12.5 | 9.89 | 33.6 | 20.6 | 22.4 | 0.26 | 32 | 42 | 25 | 31 | 97 | 13 | 7.8
